Key:
Plasmodium falciparum [1] = experiment: NOVARTIS: Inhibition of Plasmodium falciparum 3D7 (drug-susceptible) proliferation in erythrocyte-based infection assay; type: functional, organism-based; conditions: Plasmodium falciparum, 3D7
Plasmodium falciparum [2] = experiment: NOVARTIS: Inhibition of Plasmodium falciparum W2 (drug-resistant) proliferation in erythrocyte-based infection assay; type: functional, organism-based; conditions: Plasmodium falciparum, W2; read-out: EC50
[3] = NOVARTIS: Cytotoxicity against human hepatocellular carcinoma cell line (Huh7); type: toxicity, cell-based, Huh-7; conditions: Huh7 cells (hepatocellular carcinoma cell line)

`CN(C)c1nnc(C(C#N)=Cc2cc(C(=O)c3cccc(Cl)c3)cn2C)o1` showed an EC50 (Plasmodium falciparum [1]) of over 12500 nM, an EC50 (Plasmodium falciparum [2]) of 1030 nM and a CC50 [3] of over 100000 nM.

With `Oc1ccc(Nc2ccnc3cc(Cl)ccc23)cc1` the EC50 (Plasmodium falciparum [1]) was 3370 nM, the EC50 (Plasmodium falciparum [2]) was 3520 nM and the CC50 [3] was 39700 nM.

`COc1ccc(Nc2nc(NN=Cc3cc([N+](=O)[O-])ccc3OC)nc(Nc3ccc([N+](=O)[O-])cc3)n2)cc1` showed an EC50 (Plasmodium falciparum [1]) of 728 nM, an EC50 (Plasmodium falciparum [2]) of 762 nM and a CC50 [3] of over 100000 nM.

For `CCN1CCN(CC=Cc2ccccc2[N+](=O)[O-])CC1`, the EC50 (Plasmodium falciparum [1]) was over 12500 nM, the EC50 (Plasmodium falciparum [2]) was over 9690 nM and the CC50 [3] was over 100000 nM.

With `CCCCCC[n+]1ccccc1C=Cc1ccc(N(C)C)cc1` the EC50 (Plasmodium falciparum [1]) was 118 nM, the EC50 (Plasmodium falciparum [2]) was 238 nM and the CC50 [3] was 1600 nM.

With `COc1cc2c(-c3cc(Br)ccc3O)nc3c(c(-c4ccccc4)nn3-c3ccccc3)c2cc1OC` the EC50 (Plasmodium falciparum [1]) was 1150 nM, the EC50 (Plasmodium falciparum [2]) was 655 nM and the CC50 [3] was over 100000 nM.

Compound `Nc1ccc(-c2nc3cc(-c4ccc5[nH]c(-c6ccc(N)cc6)nc5c4)ccc3[nH]2)cc1` has an EC50 (Plasmodium falciparum [1]) of 579 nM, an EC50 (Plasmodium falciparum [2]) of 234 nM and a CC50 [3] of over 10000 nM.

With `COc1ccc(-n2cc(-c3ccc(C)cc3)nc2SCC(=O)Nc2ccc(C)cc2)cc1` the EC50 (Plasmodium falciparum [1]) was 2230 nM, the EC50 (Plasmodium falciparum [2]) was over 1250 nM and the CC50 [3] was over 10000 nM.

With `Cc1cc([N+](=O)[O-])ccc1-c1ccc(C(=O)Nc2ccc(-c3nc4ccccc4[nH]3)cc2)o1` the EC50 (Plasmodium falciparum [1]) was 2790 nM, the EC50 (Plasmodium falciparum [2]) was over 12500 nM and the CC50 [3] was over 100000 nM.

`Cc1ccc(NC(=O)c2cc(C(=O)c3cc(Cl)ccc3O)cn(-c3ccc(C)cc3C)c2=O)c(C)c1` gave an EC50 (Plasmodium falciparum [1]) of 934 nM, an EC50 (Plasmodium falciparum [2]) of 885 nM and a CC50 [3] of 59000 nM.

`CCCCCCOC(=O)C1=C(C)NC(=O)NC1c1ccccc1F` (stereo not given) showed an EC50 (Plasmodium falciparum [1]) of over 6760 nM, an EC50 (Plasmodium falciparum [2]) of over 8310 nM and a CC50 [3] of over 100000 nM.

For `Cc1ccc(Nc2nc(NCCO)c3ccccc3n2)cc1C`, the EC50 (Plasmodium falciparum [1]) was 175 nM, the EC50 (Plasmodium falciparum [2]) was 108 nM and the CC50 [3] was 4900 nM.

For `CC1CCCN(c2ccc(C(=O)NC3CC3)cc2[N+](=O)[O-])C1` (stereo not given), the EC50 (Plasmodium falciparum [1]) was 559 nM, the EC50 (Plasmodium falciparum [2]) was 1460 nM and the CC50 [3] was over 100000 nM.

`C/N=C(\N)Nc1nc(C)c2cc(OC)ccc2n1` showed an EC50 (Plasmodium falciparum [1]) of 662 nM, an EC50 (Plasmodium falciparum [2]) of 725 nM and a CC50 [3] of over 10000 nM.

In the case of `CCOC(=O)c1cnc2c(C)cccc2c1Nc1ccc(C(C)=O)cc1`, the EC50 (Plasmodium falciparum [1]) is reported as 119 nM, the EC50 (Plasmodium falciparum [2]) is reported as 84.6 nM and the CC50 [3] is reported as over 100000 nM.

With `Oc1ccc(CN2CCCCC2)nc1-c1ccccc1` the EC50 (Plasmodium falciparum [1]) was 241 nM, the EC50 (Plasmodium falciparum [2]) was 86.6 nM and the CC50 [3] was over 100000 nM.

With `NC(=O)Cc1ccccc1` the EC50 (Plasmodium falciparum [1]) was over 12500 nM, the EC50 (Plasmodium falciparum [2]) was 9500 nM and the CC50 [3] was over 100000 nM.

For `O=C1/C(=C/c2ccccc2)Oc2c1ccc(O)c2CN1CCCCC1`, the EC50 (Plasmodium falciparum [1]) was over 1250 nM, the EC50 (Plasmodium falciparum [2]) was 1260 nM and the CC50 [3] was over 10000 nM.

In the case of `CCOC(=O)C1=NNC2C(=O)N(c3cccc(C)c3C)C(=O)C12` (stereo not given), the EC50 (Plasmodium falciparum [1]) is reported as over 1250 nM, the EC50 (Plasmodium falciparum [2]) is reported as 563 nM and the CC50 [3] is reported as over 10000 nM.

For `O=C1NN=C2C1=NC1(CCCCC1)Cc1ccccc12`, the EC50 (Plasmodium falciparum [1]) was 325 nM, the EC50 (Plasmodium falciparum [2]) was 376 nM and the CC50 [3] was 3900 nM.

Compound `OC1(c2ccc(Cl)c(C(F)(F)F)c2)CCN(CCOC2c3ccccc3CSc3ccc(Cl)cc32)CC1` (stereo not given) has an EC50 (Plasmodium falciparum [1]) of 1010 nM, an EC50 (Plasmodium falciparum [2]) of 888 nM and a CC50 [3] of 19200 nM.

`COc1cc(/C=C/c2nc(O)nc(O)c2[N+](=O)[O-])cc(Br)c1O` showed an EC50 (Plasmodium falciparum [1]) of over 1250 nM, an EC50 (Plasmodium falciparum [2]) of over 987 nM and a CC50 [3] of over 9110 nM.

Work on `Nc1nonc1-n1nnc(C(=O)NN=Cc2ccc(F)c(Br)c2)c1-c1ccc([N+](=O)[O-])cc1` yielded an EC50 (Plasmodium falciparum [1]) of 292 nM, an EC50 (Plasmodium falciparum [2]) of 128 nM and a CC50 [3] of over 100000 nM.

`Cn1c(=O)n(Cc2ccccc2)c(=O)c2c1nc(SCC(=O)Nc1ccccc1)n2Cc1ccccc1` showed an EC50 (Plasmodium falciparum [1]) of 1850 nM, an EC50 (Plasmodium falciparum [2]) of 362 nM and a CC50 [3] of over 100000 nM.

Work on `O=C1CN(C(=O)c2cc([N+](=O)[O-])c(N3CCCCC3)c([N+](=O)[O-])c2N2CCCCC2)c2ccccc2N1` yielded an EC50 (Plasmodium falciparum [1]) of 2190 nM, an EC50 (Plasmodium falciparum [2]) of 1830 nM and a CC50 [3] of 50400 nM.

Work on `CC(C)C1c2[nH]c3ccccc3c2CCN1C(=O)CCl` (stereo not given) yielded an EC50 (Plasmodium falciparum [1]) of 498 nM, an EC50 (Plasmodium falciparum [2]) of 377 nM and a CC50 [3] of over 10000 nM.

For `CNc1ccccc1C(=O)N(C)CCc1ccccc1`, the EC50 (Plasmodium falciparum [1]) was over 1250 nM, the EC50 (Plasmodium falciparum [2]) was 68.3 nM and the CC50 [3] was over 10000 nM.

Compound `Cc1cc(Nc2ccc(OCc3ccccc3)cc2)nc2cc(O)ccc12` has an EC50 (Plasmodium falciparum [1]) of 73.6 nM, an EC50 (Plasmodium falciparum [2]) of 11.9 nM and a CC50 [3] of 17200 nM.

`COc1ccc(N(CC(=O)Nc2cc(OC)ccc2OC)S(=O)(=O)c2ccc(C)cc2)cc1` gave an EC50 (Plasmodium falciparum [1]) of over 1250 nM, an EC50 (Plasmodium falciparum [2]) of over 583 nM and a CC50 [3] of over 10000 nM.

For `O=C1N(Cc2cc3ccccc3s2)CC2CN(Cc3cccc4c3OCO4)CCN12` (stereo not given), the EC50 (Plasmodium falciparum [1]) was 727 nM, the EC50 (Plasmodium falciparum [2]) was under 0.572 nM and the CC50 [3] was over 10000 nM.

`CCOC(=O)C1=C(C)N(c2ccc(OCC)cc2)C(=O)/C1=C\c1ccc(C(C)C)cc1` showed an EC50 (Plasmodium falciparum [1]) of over 1280 nM, an EC50 (Plasmodium falciparum [2]) of 439 nM and a CC50 [3] of over 10000 nM.

In the case of `COc1cc(C=C(C#N)c2nc3ccccc3[nH]2)ccc1OCc1ccc(Cl)cc1`, the EC50 (Plasmodium falciparum [1]) is reported as 763 nM, the EC50 (Plasmodium falciparum [2]) is reported as 1570 nM and the CC50 [3] is reported as over 100000 nM.

`CC(C)C[C@H](NC(=O)N1CCOCC1)C(=O)N[C@H](/C=C/S(=O)(=O)c1ccccc1)CCc1ccccc1` showed an EC50 (Plasmodium falciparum [1]) of 210 nM, an EC50 (Plasmodium falciparum [2]) of 37.7 nM and a CC50 [3] of 48800 nM.

`Cc1ccc(NC(=O)c2sc3nc4c(c(-c5cccs5)c3c2N)CCCCC4)cc1` showed an EC50 (Plasmodium falciparum [1]) of 5570 nM, an EC50 (Plasmodium falciparum [2]) of 1560 nM and a CC50 [3] of over 100000 nM.

Compound `CCOc1ccc(-c2cc(C)[n+](CCO)c(-c3ccc(OCC)cc3)c2)cc1` has an EC50 (Plasmodium falciparum [1]) of 1080 nM, an EC50 (Plasmodium falciparum [2]) of 352 nM and a CC50 [3] of over 100000 nM.

For `CCCNC(=O)Cn1nc(C)n2c(cc3sccc32)c1=O`, the EC50 (Plasmodium falciparum [1]) was over 1250 nM, the EC50 (Plasmodium falciparum [2]) was over 971 nM and the CC50 [3] was over 10000 nM.

Compound `O=C(C1=C(O)C(=O)N(CCCn2ccnc2)C1c1ccccc1[N+](=O)[O-])c1ccccc1` (stereo not given) has an EC50 (Plasmodium falciparum [1]) of over 12500 nM, an EC50 (Plasmodium falciparum [2]) of 2830 nM and a CC50 [3] of over 100000 nM.

`COc1ccc(OC)c(-c2ccc(O)c(CNCC(C)C)c2)c1` showed an EC50 (Plasmodium falciparum [1]) of 950 nM, an EC50 (Plasmodium falciparum [2]) of 773 nM and a CC50 [3] of over 10000 nM.

Work on `O=C(NC1CC1)C1CCN(c2cccc3c2C(=O)N(Cc2cccc(C(F)(F)F)c2)C3=O)CC1` yielded an EC50 (Plasmodium falciparum [1]) of 2160 nM, an EC50 (Plasmodium falciparum [2]) of 1110 nM and a CC50 [3] of over 100000 nM.

For `O=C(Nc1ccc(Oc2cccnc2)cc1)C1CCN(Cc2ccc3nonc3c2)CC1`, the EC50 (Plasmodium falciparum [1]) was 1130 nM, the EC50 (Plasmodium falciparum [2]) was 1420 nM and the CC50 [3] was over 100000 nM.

In the case of `S=C(Nc1ccccc1)N1CCCN(c2nc3ccc(Cl)cc3s2)CC1`, the EC50 (Plasmodium falciparum [1]) is reported as 506 nM, the EC50 (Plasmodium falciparum [2]) is reported as 370 nM and the CC50 [3] is reported as over 86900 nM.

With `O=C(CCCCCN1C(=O)c2cccc3cccc(c23)C1=O)NO` the EC50 (Plasmodium falciparum [1]) was 563 nM, the EC50 (Plasmodium falciparum [2]) was 164 nM and the CC50 [3] was 3320 nM.

With `COC(=O)COc1ccc(/C=C2/SC(=Nc3ccc(F)cc3)NC2=O)cc1` the EC50 (Plasmodium falciparum [1]) was over 12500 nM, the EC50 (Plasmodium falciparum [2]) was 1850 nM and the CC50 [3] was over 100000 nM.

Compound `CCCc1ccc(OCc2nc(-c3ccc(NC(=O)c4cccs4)cc3)no2)cc1` has an EC50 (Plasmodium falciparum [1]) of 825 nM, an EC50 (Plasmodium falciparum [2]) of over 12500 nM and a CC50 [3] of over 100000 nM.

In the case of `COc1ccc(-c2nc(NC(=O)CS(=O)(=O)c3ccc(F)cc3)sc2C)cc1`, the EC50 (Plasmodium falciparum [1]) is reported as 212 nM, the EC50 (Plasmodium falciparum [2]) is reported as 560 nM and the CC50 [3] is reported as 44100 nM.

Compound `CC1N=C(c2ccc(NC(=O)c3ccc(C(=O)Nc4ccc(C5=NC(C)C(C)N5)cc4)cc3)cc2)NC1C` (stereo not given) has an EC50 (Plasmodium falciparum [1]) of 57.6 nM, an EC50 (Plasmodium falciparum [2]) of 14.8 nM and a CC50 [3] of over 100000 nM.

`O=C(c1ccc([N+](=O)[O-])cc1)c1ccc(Cl)c(Cl)c1` showed an EC50 (Plasmodium falciparum [1]) of 251 nM, an EC50 (Plasmodium falciparum [2]) of 555 nM and a CC50 [3] of over 100000 nM.

With `COc1ccc(NC(=O)COc2ccccc2C(C)C)c(OC)c1` the EC50 (Plasmodium falciparum [1]) was 7950 nM, the EC50 (Plasmodium falciparum [2]) was over 12500 nM and the CC50 [3] was over 100000 nM.

`CC(C)c1ccc(-c2cncc(N[C@@H](C)c3ccccc3)n2)cc1` gave an EC50 (Plasmodium falciparum [1]) of over 558 nM, an EC50 (Plasmodium falciparum [2]) of 846 nM and a CC50 [3] of over 10000 nM.

With `O=[N+]([O-])c1cc(C(F)(F)F)ccc1N1CCCN(C(=S)Nc2ccccc2)CC1` the EC50 (Plasmodium falciparum [1]) was 87.8 nM, the EC50 (Plasmodium falciparum [2]) was 102 nM and the CC50 [3] was over 100000 nM.
